# Assay results from patent US20150290418A1, “TREATMENT OF RESPIRATORY CONDITION USING TARGETED DELIVERY” (Beth Israel Deaconess Medical Center, Inc., priority 2013, published 2015).
# Columns and labels:
# Assay type in all cases: in vivo
# [1] = tested on: respiratory system; experiment: Respiratory impedance spectrum (resistance and elastance) during MCh doses and after intravenous atropine
# Procedure: By combining specific frequencies such that there is physiologic tidal excursion, in an example embodiment, the EVW is able to maintain gas exchange during conventional ventilation while providing continuous assessment of Z. The EVW differs from other oscillatory waveforms in that it has been modified to allow passive expiration, so Z is calculated from the inspiratory portion of the breath only.
# The mechanical impedance spectrum of the lungs or total respiratory system can be very sensitive indicators of bronchoconstriction and response to therapy. Although mathematically Z is a complex number with real and imaginary parts, it can be expressed in terms of effective frequency dependent resistance and elastance. Measurements can be obtained before and 5 minutes following a deep inspiration (DI) to 35 cm H2O, as well as after administration of intravenous atropine. Under pre and post-DI conditions, both respiratory resistance (Rrs) and elastance (Ers) increased at each frequency with increases in MCh dose. At the lowest frequencies, Rrs increased ˜50% during the highest dose of MCh compared with baseline due to increases in both airway and tissue resistances. The Ers increased by ˜65% as the parenchyma stiffens due to airway-tissue interdependence. […] Thus, the impedance spectra reveal subtleties of airway mechanics and response to therapy not evident from simple Rrs and Ers estimates measured at a single breathing frequency. Coupling these types of data to distributed models of airway and tissue mechanics then allows estimates of the heterogeneity of airway or tissue changes in addition to the overall lung properties.
# [2] = tested on: airways; experiment: Lung measurements for targeted isoflurane delivery during phases of treatment (FIG. 7); settings: following targeted therapy with isoflurane
# Description: Severe sustained bronchospasm may be established using continuous i.v. infusion of methacholine. Using the anesthetic ventilator system, a user has the ability to control the timing, peak concentration, and duration of inhaled isoflurane delivery for various ranges of conventional ventilator rates and tidal volumes typical of ICU patients. In one embodiment, the solenoid valves (shown in FIG. 1) can be programmed to deliver isoflurane during the last 180 cc of the delivered inspired volume. Furthermore, none of the inhaled isoflurane delivered during the last portion of the inspiratory period reaches the alveolar compartment to reduce the risk of side effects and systemic absorption.
# FIG. 7 are exemplary graphs 700 illustrating various lung measurements for targeted isoflurane delivery measured during various phases of treatment, according to an example embodiment. As shown in graphs 700, various lung measurements, including lung resistance (RL), lung elastance (EL), and dead space (VD), are measured as described above. […] The estimates of lung resistance and lung elastance may be obtained via multiple linear regression on measured flow and transplumonary pressure waveforms. Anatomic dead space may be estimated using breath-by-breath volume capnography. Capnography is the monitoring of the concentration or partial pressure of carbon dioxide in the respiratory gases. These measurements may be acquired at least under baseline conditions, during bronchoconstriction, after 10-20 minutes of volatile anesthetic treatment, and after maximal bronochodilation with i.v. atrophine. Airway constriction results in increased airway resistance and stiffening of the lung parenchyma, which is often measured with lung resistance and lung elastance. Measuring these parameters help in determining the effectiveness of the targeted delivery treatment.
# [3] = tested on: airways; experiment: Bronchodilation with targeted versus continuous delivery mode of volatile anesthetics (FIG. 8); settings: targeted vs continuous delivery
# Description: The various delivery modes are at least targeted mode and continuous mode. […] Using the systems and methods described here, volatile anesthetics can be selectively delivered for a specified interval during inspiration.
# [4] = Isoflurane traces during targeted and continuous delivery modes (FIG. 9); settings: two breaths
# Description: FIG. 9 are exemplary graphs 900 illustrating isoflurane traces during various delivery modes in relation to the delivered tidal volume for two breaths, according to an example embodiment. As shown in graphs 900, the solid line represents the amount of isoflurane in the lungs and the dotted line represents the tidal volume (Vt) over time.
# [5] = following intravenous atropine, MCh 200 μg/min
# [6] = following intravenous atropine, any frequency
compound,measurement,setting,value
"CC(=O)OC(C)C[N+](C)(C)C (stereo not shown) [MCh, methacholine]",increase in respiratory elastance (Ers),[1]; highest dose of MCh,~65%
same,increase in respiratory resistance (Rrs) compared with baseline,"[1]; lowest frequencies, highest dose of MCh (200 μg/min)",~50%
CN1[C@@H]2CC[C@H]1C[C@@H](OC(=O)C(CO)c1ccccc1)C2 (stereo partly shown) [atropine],Ers compared with value at the highest MCh dose,[1]; [5],decrease
same,Rrs compared with value at the highest MCh dose,[1]; [5],decrease
same,Ers compared with baseline value,[1]; [6],no significant difference
same,Rrs compared with baseline value,[1]; [6],no significant difference
FC(F)OC(Cl)C(F)(F)F (stereo not shown) [isoflurane],lung elastance (EL),[2],decreasing trend
same,lung resistance (RL),[2],decreasing trend
same,estimation of dead space (VD),[2]; evidence of bronchodilation,increasing
same,"bronchodilation, targeted delivery mode compared with continuous delivery mode",[3],slightly higher
same,"levels of isoflurane agent in the lungs, targeted compared with continuous delivery method",[4]; over time,lower for most of the time
same,"peak level of isoflurane, targeted compared with continuous delivery method",[4],comparable
FCOC(C(F)(F)F)C(F)(F)F [sevoflurane],"bronchodilation, targeted delivery mode compared with continuous delivery mode",[3],slightly higher
